Experimental data published in patent publication US20220290111A1, “NUCLEIC ACIDS, PROTEINS AND PROCESSES FOR PRODUCING AMIDES” (Leibniz-Institut für Pflanzenbiochemie, priority 2019, published 2022).

Columns and labels:
Assay type in all cases: biochemical, Piper nigrum
[1] = system: recombinant PipSyn2; assay: in vitro enzyme assay of amide formation from CoA-ester and amine, PipSyn2; conditions: for relative activity, 3,4-methylenedioxycinnamoyl-CoA / relative activity, piperoyl-CoA / relative activity, hexanoyl-CoA / relative activity, myristoyl-CoA: PipSyn2; for relative activity, 3,4-methylenedioxycinnamoyl-CoA: CoA-ester 3,4-methylenedioxycinnamoyl-CoA; for relative activity, 3,4-methylenedioxycinnamoyl-CoA / relative activity, hexanoyl-CoA / relative activity, myristoyl-CoA: 100% = 2 nkat/mg PipSyn2 with piperoyl-CoA and piperidine; for relative activity, 3,4-methylenedioxycinnamoyl-CoA / relative activity, piperoyl-CoA: UV quantification; for relative activity, piperoyl-CoA: CoA-ester piperoyl-CoA, 100% = 2 nkat/mg PipSyn2 with piperidine, assay as Example 3; for relative activity, hexanoyl-CoA: CoA-ester hexanoyl-CoA; for relative activity, hexanoyl-CoA / relative activity, myristoyl-CoA: quantification by mass detection; for relative activity, myristoyl-CoA: CoA-ester myristoyl-CoA
Description: Enzyme activity test with regard to piperine formation in case of PipSynthase 2.
(§1) A standard enzyme assay contains:
(§2) 10 μl enzyme solution in 30 mM Tris/HCl buffer pH 8.0 (10% glycerol, 1 mM DTT)
(§3) 1 μg-5 μg protein, amount determined according to Bradford
(§4) 10 μl piperidine, 100 mM (in water) 10 μl 5 mM DTT in water 10 μl piperoyl-CoA (PipCoA) 2.5 mM in 25% DMSO/75% water • All reagents (except PipCoA) were mixed in Eppendorf tubes and incubated in a standard (Eppendorf) incubator set at 30° C. Reagents were pre-equilibrated for 1 min to this temperature. • Assay start: addition of 10 μl PipCoA 2.5 mM in 25% DMSO/75% water to a final concentration of 500 μM PipCoA. • Assay stop after 5 min addition of 10 μl stop solution such as 1% formic acid/50% acetonitrile
(§5) Mix by vortex, incubate on ice for 5 minutes and centrifugation for 1 min at 20,000 g to precipitate any debris or insoluble material e.g. residual protein.
(§6) Remove 50 μl of supernatant for analysis of products (amides) by LC-MS. Injected to an RP-HPLC column are 10 μl (out of 50 μl). • Product formation is recorded via UV/PDA (photodiode array) detector and LC-MS and simultaneously. • Identification of piperine was achieved by use of a commercial standard and by LC-MS detection of calculated product masses at m/z 286 and UV-detection at 340 nm. • Quantification of product formation was achieved by a standard graph of piperine from 0.1-100 μM (commercial standard, Sigma) and recorded and calculated intensities of mass (peak area) and/or UV-peak area. • Identification and separation of piperine was according to a corresponding standard and a mass signal of m/z 286.1 in pos. mode and its corresponding absorbance at λmax-340 nm.
(§7) Quantification was performed based on a commercially available piperine standard. The peak area of the peak due to piperine in the LC trace was determined. Peaks due to possible isomerization products of piperine were neglected for the determination of enzyme activity of piperine formation. […] Before calculating enzyme activity in terms of nkat (nmole of piperine formed per second), the amount of non-enzymatically formed piperine is subtracted from the amount determined in the presence of protein.
(§8) Protein amounts were determined photometrically by the Bradford assay of combining a defined volume, preferentially 10 μl of the (partly) purified PipSyn1 and PipSyn2 enzyme and 990 μl of Bradford reagent, and calculating the resulting absorbance at λ=595 nm based on a standard curve made with a serial dilution of commercially available Bovine Serum Albumin fraction V in water.
(§9) This Example provides in Table 1 substrates which were tested for enzyme activity with both enzymes. Activity data were calculated from the UV-(PDA) area in the range of 320-370 nm. The data are supported by LC-MS measurements of corresponding m/z values recorded in positive ionization mode and based on calculated expected masses. Mass accuracy of Waters QDA-detector is +/−0.2 Dalton. Contrary to the procedure of Example 3, for the determination of the activity of the reaction of piperoyl-CoA and piperidine as substrates, the sum of all peaks in the LC trace due to species having calculated m/z values of the expected products was used for quantification of product, assuming the same ionization efficiency in positive ionization mode as in case of piperine for all molecule species.

[2] = system: PipSyn1; assay: in vitro enzyme assay of amide formation from CoA-ester and amine, PipSyn1; conditions: 100% = 2 nkat/mg PipSyn2 with piperoyl-CoA and piperidine, UV quantification; for relative activity, 3,4-methylenedioxycinnamoyl-CoA: CoA-ester 3,4-methylenedioxycinnamoyl-CoA; for relative activity, piperoyl-CoA: CoA-ester piperoyl-CoA; for relative activity, benzoyl-CoA: CoA-ester benzoyl-CoA
Description: Standard assays are routine for a person of average skill in the art.
as §1, §2, §3, §4, §5, §6, §7, §8, §9

[3] = system: PipSyn1; assay: as above; conditions: 100% = 2 nkat/mg PipSyn2 with piperoyl-CoA and piperidine, quantification by mass detection; for relative activity, hexanoyl-CoA: CoA-ester hexanoyl-CoA; for relative activity, myristoyl-CoA: CoA-ester myristoyl-CoA

NCC1CCNCC1 [4-aminomethylpiperidine]
relative activity, 3,4-methylenedioxycinnamoyl-CoA [1]: 7%
relative activity, piperoyl-CoA [1]: 36%
relative activity, 3,4-methylenedioxycinnamoyl-CoA [2]: 6%
relative activity, piperoyl-CoA [2]: 17%

COc1cc(CN)ccc1O [vanillylamine]
relative activity, hexanoyl-CoA [1]: <1%
relative activity, 3,4-methylenedioxycinnamoyl-CoA [2]: 10%
relative activity, piperoyl-CoA [2]: 2%
relative activity, hexanoyl-CoA [3]: 2%

C1CCNCC1 [piperidine]
relative activity, 3,4-methylenedioxycinnamoyl-CoA [1]: 38%
relative activity, hexanoyl-CoA [1]: 12%
relative activity, myristoyl-CoA [1]: 10%
relative activity, piperoyl-CoA [1]: 100%
relative activity, 3,4-methylenedioxycinnamoyl-CoA [2]: 184%
relative activity, benzoyl-CoA [2]: 7%
relative activity, piperoyl-CoA [2]: 117%
relative activity, hexanoyl-CoA [3]: 23%
relative activity, myristoyl-CoA [3]: 10%

NCCCCCCCN [1,7-diaminoheptane]
relative activity, piperoyl-CoA [1]: 2%
relative activity, 3,4-methylenedioxycinnamoyl-CoA [2]: 104%
relative activity, benzoyl-CoA [2]: 2%
relative activity, piperoyl-CoA [2]: 26%

C1CCNC1 [pyrrolidine]
relative activity, 3,4-methylenedioxycinnamoyl-CoA [1]: 3%
relative activity, hexanoyl-CoA [1]: 60%
relative activity, myristoyl-CoA [1]: <1%
relative activity, piperoyl-CoA [1]: 34%
relative activity, 3,4-methylenedioxycinnamoyl-CoA [2]: 186%
relative activity, benzoyl-CoA [2]: 1%
relative activity, piperoyl-CoA [2]: 77%
relative activity, hexanoyl-CoA [3]: 300%
relative activity, myristoyl-CoA [3]: 3%

NCCc1ccc(O)c(O)c1 [dopamine]
relative activity, 3,4-methylenedioxycinnamoyl-CoA [2]: 7%
relative activity, piperoyl-CoA [2]: 2%

CC(C)CN [isobutylamine]
relative activity, 3,4-methylenedioxycinnamoyl-CoA [1]: 2%
relative activity, myristoyl-CoA [1]: 15%
relative activity, piperoyl-CoA [1]: 16%
relative activity, 3,4-methylenedioxycinnamoyl-CoA [2]: 173%
relative activity, benzoyl-CoA [2]: 6%
relative activity, piperoyl-CoA [2]: 66%
relative activity, myristoyl-CoA [3]: 20%

B1: PipSyn2: recombinant His-tagged piperine synthase from Piper nigrum, amino acid sequence SEQ ID NO: 4, expressed in E. coli (protein, listed as Piper nigrum)
chain: MAPSSQLEFNVVRKQPELLPPAEPTPFEWKELSDIDDQDGLRLHISGFFIYPPSTMSNVGRDNVARDIRLGLSKAMVFYYPLAGRIREGPNRKLSVECTGEGIMYCEADADVRLEQFGDIGALSMPFPFMDKVMFETVDDGILGTPLMYFQSTRFICGGIVIAGCYNHAIADGLGFYMFMAAAAQLARGAASPTPLPVWQRERLLSRVPPRVTFIHHEYIHDTPKTETANPLDNEPWPLHSIFFTRVDVAALRAQLPGHLRKSATSFEIISACLWRCRTAALRFAPDELSRLIIAVNARTKFGPPLPQGYYGNSIMLPMVVSEAGKLVLSGLGYAVELVIEAKGKVTEEYVKSVADYLVLNGRPHYVVTNTYLVSDLRQLVEMSKFDWGWGKPAYVGPADVGENAISFLATLKNGEEEGVVVPIRLPESAVGRFKSEVSKMVSFGCLEDVKPNRDGYLSRM
modifications: His tag
catalytic activity taken as 100% ([1]; recombinant PipSyn2 with piperoyl-CoA and piperidine as substrates): 2 nkat/mg
